The values that follow come from ChEMBL document CHEMBL3994661, “Mycobacterium tuberculosis chorismate mutase: A potential target for TB” (Bioorg Med Chem, 2017).

Test [1] can be described thus: Inhibition of Escherichia coli chorismate mutase.
Test [2] relates to Escherichia coli. Kind of test: Inhibition of Escherichia coli chorismate mutase assessed as ratio of I50 to chorismate Km.
Test [3] in a line: Competitive inhibition of Escherichia coli chorismate mutase using varying levels of chorismic acid as substrate by Lineweaver-burk plot method.
Test [4] concerns Escherichia coli. Kind of test: Inhibition of Escherichia coli chorismate mutase assessed as ratio of IC50 to chorismate Km.
Test [5] is described as follows: Competitive inhibition of Bacillus subtilis chorismate mutase using varying levels of chorismic acid as substrate.
Test [6] can be described thus: Inhibition of Mycobacterium tuberculosis H37Rv chorismate mutase assessed as reduction in conversion of chorismate to prephenate using chorismic acid as substrate by spectrophotometric method.
The nature of test [7]: Inhibition of Mycobacterium tuberculosis chorismate mutase assessed as reduction in conversion of chorismate to prephenate using chorismic acid as substrate after 5 mins by spectrophotometric method.
Test [8] deals with Mycobacterium tuberculosis. Kind of test: Antibacterial activity against Mycobacterium tuberculosis H37Rv after 7 days by microplate alamar blue assay. Format: functional. The conditions noted are these: 168 h.
A short description of test [9]: Inhibition of Mycobacterium tuberculosis chorismate mutase assessed as reduction in conversion of chorismate to prephenate using chorismate as substrate after 1 to 5 mins.
The test system of test [10] is Mycobacterium tuberculosis. Kind of test: Inhibition of Mycobacterium tuberculosis chorismate mutase expressed in Escherichia coli BL21 (DE3) assessed as reduction in conversion of chorismate to prephenate at 30 uM using chorismic acid as substrate after 5 mins by spectrophotometric method relative to control.

By IC50 is commonly meant the midpoint of a concentration-inhibition curve. As usually defined, the Ki is the equilibrium dissociation constant of an inhibitor or competing ligand from its target. As a reminder, the MIC is the lowest concentration found to suppress growth. Low values mean a more susceptible organism, high ones a less susceptible organism. A word on the inhibition: it is the drop in the measured response relative to a control, in per cent.

Converted amounts (≈) assume the structure as drawn.

In turn, `O=C(O)C12CC3CC(C(=O)O)(C1)C2CC3O` (stereo not given) registered an IC50 in [1] of 500 µM. Besides, the Ratio in the test on Escherichia coli [2] came to 5.6.

In test [3], `O=C(O)c1cccc([N+](=O)[O-])c1-c1c(C(=O)O)cccc1[N+](=O)[O-]` displayed a Ki of 13 µM.

Take `O=C1OC2CC3(C(=O)O)CC1NC(C3)C2O` (stereo not given): the Ratio in the test with Escherichia coli [4] is more than 50.

With `O=C(O)C1CC2(C(=O)O)C=CC(O)C(C2)O1` (stereo not given), the Ratio with Escherichia coli [4] was determined as 0.007.

`O=C(O)C1CC2([N+](=O)[O-])C=CC(O)C(C2)O1` (stereo not given): the affinity in test [5], expressed as Ki, was 0.3 µM.

With `CCOC(=O)C1=C(C)NC(=O)N[C@H]1c1ccccc1C#CCCO`, in test [6], the IC50 amounted to 14.8 µM.

On to `O=C1Nc2ccccc2/C1=C/c1ccc([N+](=O)[O-])cc1`, for which the IC50 in test [7] was found to be 1.01 µM. Also, the minimal inhibitory concentration (MIC) in [8] was determined as 23.5 µM (≈ 6.26 µg/mL).

With `O=C(O)C1CC2CC(C(=O)O)(C=CC2O)C1` (stereo in doubt; 16) [listing 1 of 2 here], the IC50 in test [1] stood at 430 µM.

In the case of `O=C(O)C1CC2CC(C(=O)O)(C=CC2O)C1` (stereo in doubt; 17) [listing 1 of 2 here], in [1], the IC50 was 500 µM.

For the compound `O=C1Nc2ccccc2C1=O` [ISATIN], it took 340 µM (≈ 50 µg/mL) to inhibit growth in test [8] (MIC).

Regarding `O=C(O)C1CC2(C(=O)O)C=CC(O)C(C2)N1` (stereo in doubt; 23), the Ratio in the test on Escherichia coli [4] was 18.

`O=C(O)C1CC2CC(C(=O)O)(C=CC2O)C1` (stereo in doubt; 17) [listing 2 of 2 here]: in the test with Escherichia coli [2], the Ratio was 5.6.

Take `O=C(O)C1CC2(C(=O)O)C=CC(O)C(C2)N1` (stereo in doubt; 22): in the test on Escherichia coli [4], the Ratio came to 1.2.

`O=C(O)C1CC2(C(=O)O)C=CC3C(C2)N13` (stereo not given): the Ratio in the test on Escherichia coli [4] was more than 20.

On to `Cc1ccc(C(C)C)cc1O` [CARVACROL], for which the IC50 in test [9] was determined as 1.06 µM.

Regarding `CC(=O)c1c(C(C)(C)C)[nH]c2c(S(C)(=O)=O)cc(Cl)cc12`, the inhibition in test [10] amounted to 45%.

Consider `O=C1OC2CC3(C(=O)O)CC1N1C(C3)C21` (stereo not given), for which the Ratio in the test on Escherichia coli [4] is 42.

`O=C(O)C1CC2CC(C(=O)O)(C=CC2O)C1` (stereo in doubt; 16) [listing 2 of 2 here]: in the test on Escherichia coli [2], the Ratio came out at 4.8.
